Here are results for ten compounds from ChEMBL document CHEMBL1201862, “PubChem BioAssay data set” (2004).

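Compound exposure: 48 hours, 5 concentrations, 96-well plates. GI50: concentration for 50% inhibition of growth.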 Calls of active or inactive are those of the source. No stated cut-off is given here; in the data, active = GI50 up to about 1.1 µM and inactive = higher. *1 amine or outer side, *2 acyl side, *3 side chain or, on linkers, in order; H or OH if unused. Where a SMILES comes first, the peptide text is derived from it. The star is where a group is joined. γGlu = O=C(O)[CH](CCC(=O)[*:2])N[*:1]; NHOH = ON*

Some test systems named below: HCC 2998; NCI-H226; SK-OV-3; SK-MEL-28; SK-MEL-2; OVCAR-4; SF-295; HT-29; RXF 393; CAKI-1; SNB-19; EKVX; SF-539; M14; DU-145; HL-60; UACC-62; BT-549; CCRF-CEM; SN12C.
Assay in all cases: NCI-60 cell line screen, 48 h

Take `Cc1ccc(/C=C2\CN(C)CC3=C2OC(N)=C(C#N)C3c2ccc(C)cc2)cc1` (stereo not given): the GI50 was 15.2 µM (inactive) in the assay with HCC 2998; 22.2 µM (inactive) in the assay with NCI-H226; 9.84 µM (inactive) with SK-OV-3; 27.8 µM (inactive) in the assay with SK-MEL-28; 39.9 µM (inactive) in the assay on SK-MEL-2; 12.2 µM (inactive) with OVCAR-4. Also, the GI50 with SF-295 is 16.8 µM (inactive); with HT-29 it was 16.1 µM (inactive); in the assay on RXF 393, 11.3 µM (inactive); with CAKI-1, 19.5 µM (inactive); with SNB-19, 26.4 µM (inactive); in the assay with EKVX it was 17.1 µM (inactive). Besides, the GI50 in the assay with SF-539 is 41.7 µM (inactive); with M14, 20.6 µM (inactive); in the assay on DU-145, 17.9 µM (inactive); with HL-60 it was < 0.01 µM (active); in the assay with UACC-62 it was 18.4 µM (inactive); in the assay on BT-549, 16.7 µM (inactive). Besides, the figures for the GI50 in the assay with CCRF-CEM and in the assay on SN12C were 4.2 µM (inactive) and 17.3 µM (inactive), respectively.

Regarding `CC(=O)OCC1OC(OC2CC3C(C)(C)C(OC(C)=O)CC[C@]3(C)C3CCC45CC4(CCC5[C@@H](C)C[C@H](O)C(O)C(C)(C)O)[C@]23C)C(O)C(O)C1O` (stereo not given in full), the GI50 with HCC 2998 is > 10 µM (inactive); in the assay on NCI-H226 it was > 10 µM (inactive); in the assay with SK-OV-3, > 10 µM (inactive); with SK-MEL-28, > 10 µM (inactive); with SK-MEL-2, 5.65 µM (inactive); in the assay with OVCAR-4, > 10 µM (inactive). The GI50 in the assay on SF-295, in the assay on HT-29, in the assay on RXF 393, with CAKI-1, with SNB-19 and in the assay on EKVX was > 10 µM (inactive) throughout. Further, the GI50 in the assay with SF-539 is > 10 µM (inactive); with M14 it was > 10 µM (inactive); in the assay on DU-145, > 10 µM (inactive); with HL-60, 9.44 µM (inactive); with UACC-62, > 10 µM (inactive); in the assay on BT-549, > 10 µM (inactive). The GI50 in the assay on CCRF-CEM and in the assay with SN12C was > 10 µM (inactive) each time.

Turning to `CCOP1(=O)CC(C)=C(Cl)C(OC)C1` (stereo not given), the GI50 in the assay with HCC 2998, in the assay with NCI-H226, in the assay with SK-OV-3, in the assay on SK-MEL-28, with SK-MEL-2 and in the assay with OVCAR-4 was > 100 µM (inactive) each time. Further, the GI50 in the assay on SF-295, with HT-29, with RXF 393, in the assay with CAKI-1, in the assay with SNB-19 and with EKVX was > 100 µM (inactive) each time. The GI50 in the assay with SF-539 was > 100 µM (inactive); in the assay with M14 it was > 100 µM (inactive); with DU-145, > 100 µM (inactive); in the assay on HL-60 it was 57.1 µM (inactive); with UACC-62, > 100 µM (inactive); with BT-549, > 100 µM (inactive). Also, the GI50 was 30.1 µM (inactive) with CCRF-CEM and > 100 µM (inactive) in the assay with SN12C.

With `CN(C)/C=N/S(=O)(=O)c1nn2c(C=O)c(-c3cc4ccccc4oc3=O)nc2s1`, the GI50 in the assay with HCC 2998 is 19.5 µM (inactive); in the assay on NCI-H226, 15.2 µM (inactive); in the assay on SK-OV-3, 39.8 µM (inactive); in the assay on SK-MEL-28 it was 2.38 µM (inactive); in the assay with SK-MEL-2, 11.9 µM (inactive); in the assay on OVCAR-4 it was 8.38 µM (inactive). Besides, the GI50 is > 44.1 µM (inactive) in the assay on SF-295; 0.918 µM (active) with HT-29; 2.58 µM (inactive) in the assay with RXF 393; 1.75 µM (inactive) in the assay on CAKI-1; 39.4 µM (inactive) with SNB-19; 10.4 µM (inactive) with EKVX. Moreover, the GI50 in the assay on SF-539 is 4.53 µM (inactive); in the assay with M14, 7.83 µM (inactive); in the assay on DU-145 it was 5.56 µM (inactive); in the assay with HL-60, 1.61 µM (inactive); in the assay on UACC-62, 7.28 µM (inactive); in the assay on BT-549, 8.65 µM (inactive). The GI50 is 0.276 µM (active) in the assay with CCRF-CEM and 5.92 µM (inactive) with SN12C.

As for `Cc1c2c(c(C)c3c4c(oc13)CCCC4)C=NCC2`, the GI50 with HCC 2998 was 21.1 µM (inactive); in the assay on NCI-H226, 14.2 µM (inactive); in the assay with SK-OV-3, 20.7 µM (inactive); with SK-MEL-28, 18.9 µM (inactive); with SK-MEL-2, 17.1 µM (inactive); in the assay with OVCAR-4, 22.3 µM (inactive). Moreover, the GI50 with SF-295 is 16.1 µM (inactive); in the assay on HT-29 it was 6.64 µM (inactive); in the assay on RXF 393, 3.66 µM (inactive); in the assay with CAKI-1, 13.2 µM (inactive); in the assay on SNB-19, 22.8 µM (inactive); in the assay on EKVX, 12.7 µM (inactive). The GI50 with SF-539 was 15.2 µM (inactive); with M14, 20.2 µM (inactive); with DU-145, 15 µM (inactive); in the assay with HL-60 it was 19.7 µM (inactive); in the assay with UACC-62, 15 µM (inactive); with BT-549, 16.8 µM (inactive). Besides, the GI50 in the assay with CCRF-CEM is 12.1 µM (inactive); in the assay with SN12C, 15.8 µM (inactive).

Regarding `COCN1C(=O)[C@@H]2CCCN2C(=O)c2ccc(N)cc21`, the GI50 with HCC 2998, in the assay with NCI-H226, in the assay with SK-OV-3, in the assay with SK-MEL-28, in the assay with SK-MEL-2 and in the assay on OVCAR-4 was > 100 µM (inactive) throughout. Besides, the GI50 in the assay with SF-295, with HT-29, in the assay with RXF 393, in the assay with CAKI-1, with SNB-19 and in the assay on EKVX was > 100 µM (inactive) in each case. Further, the GI50 in the assay on SF-539, in the assay on M14, in the assay on DU-145, with HL-60, in the assay with UACC-62 and in the assay on BT-549 was > 100 µM (inactive) in each case. For the same compound, the GI50 with CCRF-CEM and in the assay on SN12C was > 100 µM (inactive) in each case.

In the case of `NC(CCC(=O)NC(CCC(=O)NO)C(=O)NCC(=O)O)C(=O)O` (stereo not given) (γGlu-Glu(NHOH)-Gly-OH; configuration not given here), the GI50 with HCC 2998, in the assay with NCI-H226, in the assay on SK-OV-3, with SK-MEL-28, in the assay with SK-MEL-2 and in the assay on OVCAR-4 was > 100 µM (inactive) throughout. In addition, the GI50 with SF-295, with HT-29, in the assay with RXF 393, in the assay with CAKI-1, in the assay with SNB-19 and with EKVX was > 100 µM (inactive) each time. Besides, the GI50 in the assay with SF-539, in the assay on M14, with DU-145, with HL-60, with UACC-62 and in the assay with BT-549 was > 100 µM (inactive) throughout. Moreover, the GI50 in the assay with CCRF-CEM and in the assay on SN12C was > 100 µM (inactive) each time.

For `CC(=O)NC(Cc1ccccc1)NC(=O)O` (stereo not given), the GI50 in the assay with HCC 2998, in the assay with NCI-H226, in the assay with SK-OV-3, with SK-MEL-28, with SK-MEL-2 and in the assay on OVCAR-4 was > 100 µM (inactive) each time. For the same compound, the GI50 with SF-295, in the assay with HT-29, in the assay with RXF 393, in the assay on CAKI-1, in the assay on SNB-19 and in the assay on EKVX was > 100 µM (inactive) throughout. For the same compound, the GI50 in the assay with SF-539, in the assay with M14, in the assay on DU-145, in the assay with HL-60, with UACC-62 and with BT-549 was > 100 µM (inactive) throughout. Besides, the GI50 in the assay with CCRF-CEM and with SN12C was > 100 µM (inactive) each time.

Turning to `O=C(O)C(CO)NC(=O)C1C(C(=O)O)C(c2ccccc2[N+](=O)[O-])C=C(c2ccco2)N1c1ccncc1` (stereo not given), the GI50 with HCC 2998 is 4.91 µM (inactive); in the assay with NCI-H226, 14.5 µM (inactive); in the assay with SK-OV-3 it was 15.1 µM (inactive); with SK-MEL-28, 9.55 µM (inactive); in the assay with SK-MEL-2, 16.3 µM (inactive); with OVCAR-4, 12.7 µM (inactive). The GI50 in the assay on SF-295 was 7.05 µM (inactive); in the assay with HT-29, 1.81 µM (inactive); in the assay on RXF 393 it was 1.64 µM (inactive); in the assay on CAKI-1 it was 8.85 µM (inactive); in the assay on SNB-19, 12 µM (inactive); with EKVX, 14.9 µM (inactive). The GI50 was 1.84 µM (inactive) with SF-539; 4.32 µM (inactive) in the assay with M14; 11.4 µM (inactive) in the assay on DU-145; 2.97 µM (inactive) with HL-60; 7.83 µM (inactive) with UACC-62; 5.85 µM (inactive) with BT-549. Also, the figures for the GI50 with CCRF-CEM and in the assay on SN12C were 2.19 µM (inactive) and 4.62 µM (inactive), respectively.

Regarding `O=S(=O)(O)c1ccc(Nc2ccnc3cc(Cl)ccc23)cc1`, the GI50 with HCC 2998, with NCI-H226, with SK-OV-3, with SK-MEL-28, in the assay with SK-MEL-2 and with OVCAR-4 was > 100 µM (inactive) throughout. In addition, the GI50 in the assay on SF-295, in the assay on HT-29, in the assay with RXF 393, in the assay on CAKI-1, in the assay with SNB-19 and with EKVX was > 100 µM (inactive) throughout. The GI50 in the assay with SF-539, with M14, in the assay with DU-145, in the assay on HL-60, in the assay on UACC-62 and in the assay with BT-549 was > 100 µM (inactive) in each case. Moreover, the GI50 in the assay on CCRF-CEM and in the assay with SN12C was > 100 µM (inactive) each time.
